Columns and labels:
TAC rats = test: Actin remodeling (FITC-phalloidin) and cardiac fibrosis (picrosirius red) in TAC rats; format: in vivo, Wistar rats; conditions: for level of myocardia F-actin (FITC-phalloidin staining): 9 weeks TAC, compound A 8 mg/kg/d, sildenafil 70 mg/kg/d; for reduction in interstitial fibrosis: 8 mg/kg/d
Procedure: TAC between the innominate artery and the left carotid artery was conducted to induce pressure overload for 3 weeks (3-week TAC) or 9 weeks (9-week TAC). Sham control animals underwent the same operation, but without aortic constriction. All surgical procedures were performed with animals anesthetized with 3% pentobarbital sodium injected intraperitoneally (i.p. 40 mg/kg). During the surgery period, rats were intubated and ventilated with a rodent ventilator (Harvard Apparatus, Holliston, Mass., USA). Both 3-week and 9-week TAC-exposed rats were randomly divided into five groups (n=8-10 rats) including a TAC vehicle control, COMPOUND A, low (TAC+COMPOUND A (L), 1 mg/kg/d), middle (TAC+COMPOUND A (M), 2 mg/kg/d), high (TAC+COMPOUND A (H), 8 mg/kg/d) dose group respectively, and sildenafil (TAC+Sil, 70 mg/kg/d) as a positive control group. Sham controls were all treated with vehicle. Acute and chronic mortality from the TAC procedure was <5%. The treat group was intra-gastric administrated with sodium salt of compound A which was solved in a mixture of saline and organic solvent of the same volume (1:1, 0.5 ml) and sildenafil which was solved in distilled water. All drugs and vehicle treatment were given twice a day after surgery for three days as designed. The animals were examined at 3 weeks and 9 weeks after surgery accordingly. At the end of the observation periods and after hemodynamic measurement in vivo, all animals were sacrificed and hearts were explanted for further Analyses. Tissue sections of rat hearts were fixed in 10% neutral-buffered formalin, embedded in paraffin, cut into […] serial sections, and then stained with haematoxylin and eosin (H&E), picrosirius red or phalloidin. Nikon system and Zeiss confocal microscope were used to capture digital images. Stained with H&E was to evaluate cell size, stained with picrosirius red (sigma CA) was to test fibrosis using standard procedure and the amount of F-actin was stained with phalloidin. We determined cross sectional cell area and interstitial collagen fraction using computer-assisted image analysis (Image-Pro Plus software), with the observer blinded as to tissue source. At least four or five different hearts were quantified for analysis. Some transcription factors important for hypertrophy influence actin dynamics, which is regulated by free G-actin and polymeric F-actin. A higher F-to-G actin content is an important result of the activation of hypertrophy pathways. The level of myocardia F-actin was measured by FITC-phalloidin staining. […] TAC increased the level of F actin, thus lead to actin dynamics. Both compound A and sildenafil can reduced the expression of F actin and maintain F/G actin balance. To determine whether compound A attenuates TAC-induced cardiac fibrosis, heart tissues were stained with picrosirius red to detect interstitial collagen distribution in left ventricular. In both 3-week and 9-week TAC groups, TAC induced significant interstitial fibrosis (P<0.05). The collagen content increased 5.7 fold and 7.5 fold in 3-week and 9-week TAC control groups, respectively, compared to sham control group.

cGMP = cGMP ELISA in neonatal rat fibroblasts; format: cell-based; conditions: 100 um, 3 h
Procedure: Neonatal rat cardiac fibroblasts were isolated from 1-2-day-old Sprague-Dawley rats as described previously. Briefly, hearts from newborn 1-2-day-old Sprague-Dawley rats were minced on ice, and cells were isolated by trypsin incubation at 37° C. Non-cardiomyocytes were separated from the cardiomyocytes by differential pre-plating, and then cardiomyocytes were removed with fibroblasts seeded in culture dishes. The cells were passaged after 3 days, using a 0.05% trypsin solution. Cells were cultured in DEME/F12 medium with 5% fetal calf serum, and maintained at 37° C., 5% CO2 condition. cGMP levels in the neonatal rat fibroblasts after treated with vehicle or compound A or sildenafil were measured with an ELISA kit following the manufacture's instruction. Quiescent cells were cultured with different doses of compound A ([…]) or sildenafil ([…]) for 3 h. After treatment, the cells were lysed with 0.1N HCl, and performed cGMP ELISA assay.

[1] = tested on: Diabetic cardiomyopathy (DCM) rats; test: Streptozotocin-induced diabetic cardiomyopathy; format: in vivo, Wistar rats; conditions: STZ diabetes, 12-16 weeks
Procedure: Diabetic cardiomyopathy (DCM) Diabetic induced injury to the myocardium. DCM, induced by streptozotocin (STZ), along with the associated changes occurring in inflammation, oxidative stress and fibrosis markers. Wistar rats were randomly divided into four groups: group A (Normal control), group B (Diabetes), group […] group D (DM/TMZ, trimetazidine treatment). After 12-16 weeks, left ventricular function was measured by the pressure-volume system. Cardiac tissues were prepared for histological study by hematoxlyin and eosin, Sirius red staining as well as for assays of oxidative stress. Oxidative stress, inflammation, and fibrosis markers were evaluated by molecular biological techniques. All data were measured morphometrically and statistically analyzed.

[2] = tested on: neonatal rat cardiac fibroblasts; test: TGF-β induced proliferation of cardiac fibroblasts (MTT); format: cell-based; conditions: cultured neonatal rat cardiac fibroblasts
Source text: This invention disclosed that compound A can prevent TGF-β induced proliferation in cultured neonatal rat cardiac fibroblasts. Furthermore, this invention disclosed that there were a significant increase in cGMP levels in compound A treated cardiac fibroblasts which is related to its anti-hypertrophy and anti-fibrosis roles.
Neonatal rat cardiac fibroblasts were isolated from 1-2-day-old Sprague-Dawley rats as described previously. Briefly, hearts from newborn 1-2-day-old Sprague-Dawley rats were minced on ice, and cells were isolated by trypsin incubation at 37° C. Non-cardiomyocytes were separated from the cardiomyocytes by differential pre-plating, and then cardiomyocytes were removed with fibroblasts seeded in culture dishes. The cells were passaged after 3 days, using a 0.05% trypsin solution. Cells were cultured in DEME/F12 medium with 5% fetal calf serum, and maintained at 37° C., 5% CO2 condition.
Viability of cardiac fibroblast in culture was assessed using the 3-(4,5-dimethylthiazol-2-yl)-2,5-diphenyltetrazolium bromide (MTT) method. The assay measures the ability of an active mitochondrial enzyme to reduce the MTT substrate (yellow to blue) in live cells. Isolated primary cardiac fibroblasts were plated in serum-free conditions on 96-well plates. […] Absorbance was measured at 460 nm.

male rats = test: Penile erection in male rats; format: in vivo; conditions: relative higher dose
dogs = test: Penile erection in male dogs; format: in vivo; conditions: relative higher dose
[3] = tested on: cerebral I/R injured rats; test: Late phase cerebral I/R injury (7 days) in rats; format: in vivo; conditions: 7 days after I/R
Procedure: Reactive astrogliosis is a common pathological process in late phase of cerebral I/R injury, which contributes to further neuronal damages. It is also seen in neuronal degenerative disease such as Alzheimer's disease in the present invention, compound A given consecutively for 7 days in cerebral I/R injured rats. […] The therapeutic effects of either single or consecutive 7 treatments with compound A were Analyzed and compared at 7 days after I/R injury.

[4] = tested on: cerebral ischemia/reperfusion (I/R) injury; conditions: within 24 hours; cited from earlier work

CCCc1nn(C)c2c(=O)[nH]c(-c3cc(S(=O)(=O)N4CCN(C)CC4)ccc3OCC)nc12 [sildenafil, reference compound]
level of myocardia F-actin (FITC-phalloidin staining) (TAC rats): returned to control conditions
inhibition effect on cardiac fibrosis compared to compound A (TAC rats; TAC rats): less inhibition effect
Stimulated production of cGMP (cGMP): 141 ± 27%

C[C@@]12CC[C@@H]3[C@@](CC[C@H]4[C@@]3(C)CCC[C@@]4(C)C(=O)O)(CC1=O)C2 [Compound A, (4α,8β,13β)-13-methyl-16-oxo-17-norkauran-18-oic acid]
reduction in interstitial fibrosis (TAC rats; 3-week TAC): 58.2%
reduction in interstitial fibrosis (TAC rats; 9-week TAC): 80.8%
level of myocardia F-actin (FITC-phalloidin staining) (TAC rats): returned to control conditions
cardiac hypertrophy [1]: significant inhibited
TGF-β induced proliferation [2]: prevent
penile erection (male rats): long lasting penile erection
penile erection (dogs): long lasting penile erection
I/R injury, consecutive 7 treatments comparing to single treatment [3]: significantly improved
accumulation of activated astrocytes ([3]; consecutive treatments): significantly inhibited
infarct volume ([3]; given consecutively for 7 days): reduction
neurological behavior and cellular morphology ([3]; given consecutively for 7 days): improvement
neuronal survival ([3]; given consecutively for 7 days): enhancement
protection against cerebral I/R injury [4]: protect
